Measured values published in paper PMC11375437, “Selective labelling of GBA2 in cells with fluorescent β-D-arabinofuranosyl cyclitol aziridines” (Chemical Science, 2024).

Target: T1, rhGBA1 (Homo sapiens, UniProt P04062, R534H)
T1 construct: purchased Sanofi Genzyme (gift) Cerezyme®
T1 sequence (P04062 40-536 R534H): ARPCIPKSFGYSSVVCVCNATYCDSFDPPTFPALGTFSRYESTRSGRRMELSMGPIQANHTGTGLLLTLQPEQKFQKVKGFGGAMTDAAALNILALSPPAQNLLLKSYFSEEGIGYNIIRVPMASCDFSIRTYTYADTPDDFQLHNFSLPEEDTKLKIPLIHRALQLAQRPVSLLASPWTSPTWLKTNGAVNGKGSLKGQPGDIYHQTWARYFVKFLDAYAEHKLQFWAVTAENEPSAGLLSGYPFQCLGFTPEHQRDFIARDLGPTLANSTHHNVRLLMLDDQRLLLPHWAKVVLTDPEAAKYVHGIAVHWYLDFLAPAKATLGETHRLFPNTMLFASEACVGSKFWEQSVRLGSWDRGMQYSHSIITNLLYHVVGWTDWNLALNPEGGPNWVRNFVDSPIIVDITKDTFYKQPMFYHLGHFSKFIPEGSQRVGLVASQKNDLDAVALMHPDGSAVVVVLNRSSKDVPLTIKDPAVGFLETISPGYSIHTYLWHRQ
Experiment: Labelling of GBA2 OE lysate spiked with rhGBA1, residual rhGBA1 read out with ABP 10 or 11
Assay type: biochemical
Conditions: GBA2 OE lysate spiked with 3 ng rhGBA1; 30 min
Experimental: To this end, lysates of HEK293T cells containing all β-glucosidases (endogenous GBA1 with overexpressed GBA2 and GBA3) were treated with ABPs 3, 4, 5 or 7, followed by protein separation by SDS-PAGE and fluorescence scanning of the wet gel slabs. […] In contrast, the β-D-Araf aziridine ABPs 3 and 4 selectively labelled GBA2 at a concentration of 100 nM, while Cy5 tagged ABP 5 did so at 500 nM. The GBA2 selectivity of β-D-Araf cyclitol aziridines 3, 4 and 5 was confirmed in a mixture of a lysate of overexpressed GBA2 cells spiked with 3 ng rhGBA1 (Fig. 2C and ESI Fig. S3 ^†). […] Therefore, only a combined inactivation rate constant (kinact) and binding constant (KI) ratio (kinact/KI) could be measured. […] Importantly, no labelling of GBA1 or GBA3 was detected under varying pH and time conditions (ESI Fig. S4-2 ^†). […]
2.8 β-Glucosidase inactivation visualized by competitive ABPP with SDS-PAGE In general, samples containing GBA1, GBA2 or GBA3 (see the exact constitution of these samples in the described case) are first incubated (in vitro or in situ) with the inactivator compounds, subsequently, the fluorescent readout ABPs were added and incubated with the mixture to reveal the residual active β-glucosidase enzymes. […]

Structure (SMILES) | Concentration at which marginal GBA1 labelling occurs [µM]
CC1=CC(C)=[N+]2C1=C(CCCCc1cn(CCCCCCCCN3[C@@H]4[C@H](CO)[C@@H](O)[C@H](O)[C@@H]43)nn1)c1c(C)cc(C)n1[B-]2(F)F (some centres unmarked) [ABP 3] | 10
COc1ccc(C2=[N+]3C(=C(CCCCc4cn(CCCCCCCCN5[C@@H]6[C@H](CO)[C@@H](O)[C@H](O)[C@@H]65)nn4)c4ccc(-c5ccc(OC)cc5)n4[B-]3(F)F)C=C2)cc1 (some centres unmarked) [ABP 4] | 10
